Test results reported in article PMC7660940, “Gerardiins A–L and Structurally Related Phenanthrenes from the Halophyte Plant Juncus gerardii and Their Cytotoxicity against Triple-Negative Breast Cancer Cells” (Journal of Natural Products, 2020).
Where two headings read alike, the source gives them in different places.

Key:
[1] = test system: 4T1 (mouse triple-negative breast cancer cells); test: MTT viability assay / IC50 determination in 4T1 cells; assay type: cell-based; conditions: for cytotoxic effect on 4T1 cells, MTT assay: 20 μM; for cytotoxic effect on 4T1 cells, MTT assay / cytotoxicity (viability of 4T1 cells), MTT assay: 48 h; for cytotoxicity (viability of 4T1 cells), MTT assay: 10 or 20 μM, Figure S74; for IC50: MTT assay, 48 h treatment, n = 6–8, read-out: IC50 [95% C.I.], 4T1
Experimental: (§1) 4T1 (mouse triple-negative breast cancer cells) were cultured in RPMI (Roswell Park Memorial Institute) 1640 medium supplemented with 5% fetal bovine serum (FBS) (both from Thermo Fisher Scientific, Waltham, MA, USA). MDA-MB-231 (human triple-negative breast cancer cells, abbreviated as MDA) were cultured in DMEM (Dulbecco’s modified Eagle’s medium, Thermo Fisher Scientific) + 5% FBS. D3 (hCMEC/D3 human cerebral microvascular endothelial cells) were kept in rat tail collagen-coated dishes in EBM-2 (endothelial basal medium-2, Lonza, Basel, Switzerland) complemented with 2% FBS and an EGM-2MV kit (Lonza).
(§2) Viability and impedance measurements were performed in the log growth phase of tumor cells and in the stationary phase of endothelial cells.
(§3) For the MTT (3-[4,5-dimethylthiazole-2-yl]-2,5-diphenyltetrazolium bromide) viability assay, cells were plated in 96-well plates (Corning, Corning, NY, USA). The seeding density of the cells was 5000/well (for 4T1 or MDA cells) or 25 000/well (for D3 cells). After 48 h, half of the medium was replaced with serum-free medium, containing the test compounds in a final concentration of 10 or 20 μM. Control wells received solvent (DMSO) in up to a 0.2% concentration. After 48 h, MTT reagent (Sigma-Aldrich, St. Louis, MO, USA) was added to the cells in a final concentration of 2.5 mg/mL. After incubation at 37 °C for 30 min, acidified isopropanol solution was added to each well. Absorbance was measured at 595 nm with a FLUOstar OPTIMA microplate reader (BMG LABTECH, Offenburg, Germany). Doxorubicin was used as a positive control, at a concentration of 10 μM.
(§4) For determining IC50 values, nine-step, 2-fold serial dilutions of the test compounds were applied, starting from 100 μM. Cells were treated for 48 h, and viability was measured with the MTT assay, as described above. Half-maximum inhibitory concentrations (IC50) were calculated via nonlinear dose–response curve fitting by the log(inhibitor) vs response (variable slope) model of GraphPad Prism 5.01 (GraphPad Software, San Diego, CA, USA) by using automatic outlier elimination at Q = 1.0.

[2] = test system: 4T1 (mouse triple-negative breast cancer cells); test: Impedance measurement (xCELLigence RTCA, cell index) in 4T1 cells; assay type: cell-based; conditions: 20 μM, 48 h
Experimental: as §1, §2
For impedance measurements, cells were plated in 96-well E-plates having microelectrodes integrated on the bottom (ACEA Biosciences, San Diego, CA, USA) and allowed to attach onto the electrode surface for 48 h. Afterward, cells were treated with the test compounds as described above. Electrical impedance was recorded every 30 min for 48 h using an xCELLigence real-time cell analysis (RTCA) instrument (ACEA Biosciences). Cell index was automatically calculated by the software of the instrument.

[3] = test system: A2780 human ovarian cancer cells; set-up: method as in Bús et al. 8; conditions: ref Bús et al. 8; cited from earlier work
[4] = test system: MDA-MB-231 (human triple-negative breast cancer cells); test: MTT viability assay / IC50 determination in MDA-MB-231 cells; assay type: cell-based; conditions: for cytotoxicity (viability of MDA cells), MTT assay: 10 or 20 μM, 48 h, Figure S74; for IC50: MTT assay, 48 h treatment, n = 6–8, read-out: IC50 [95% C.I.], MDA-MB-231
Experimental: as §1, §2, §3, §4

[5] = test system: D3 (hCMEC/D3 human cerebral microvascular endothelial cells); test: MTT viability assay / IC50 determination in D3 endothelial cells; assay type: cell-based; conditions: for cytotoxicity (viability of D3 cells), MTT assay: 10 or 20 μM, 48 h, Figure S74; for IC50: MTT assay, 48 h treatment, n = 6–8, read-out: IC50 [95% C.I.], D3
Experimental: as §1, §2, §3, §4

[6] = test system: HeLa cervical cancer cells; set-up: method as in PMID 31005716; conditions: cited from earlier work

Compound	cytotoxic effect on 4T1 cells, MTT assay [1]	cytotoxic effect on 4T1 cells, impedance measurements (cell index) [2]	cytotoxicity (viability of MDA cells), MTT assay [4]	cytotoxicity (viability of 4T1 cells), MTT assay [1]	cytotoxicity (viability of D3 cells), MTT assay [5]	further results
Cc1c(O)ccc2c1CCc1cc(O)cc(CO)c1-2 [2,7-dihydroxy-5-hydroxymethyl-1-methyl-9,10-dihydrophenanthrene]	not cytotoxic	not cytotoxic	–	–	–	–
C=Cc1cc(O)cc2c1-c1cc(-c3cc4c(c(C)c3O)CCc3cc(O)cc(C=C)c3-4)c(O)c(C)c1CC2 [Compound 15, Effususin A]	–	–	cytotoxic	cytotoxic	cytotoxic	toxicity in A2780 human ovarian cancer cells [3]: moderate toxicity
C=Cc1c(C)c(O)cc2c1-c1ccc(O)c(C)c1CC2 [juncusol]	moderate cytotoxicity	moderate cytotoxicity	–	–	–	antiproliferative activity against HeLa cervical cancer cells [6]: antiproliferative activity
C=Cc1c(C)c(O)cc2c1-c1ccc(OC)c(C)c1CC2 [compressin A]	not cytotoxic	not cytotoxic	–	–	–	–
Gerardiin J [Compound 10]	–	–	cytotoxic	cytotoxic	cytotoxic	IC50 [4]: 6.6 µM; IC50 [1]: 5.6 µM; IC50 [5]: 15.7 µM
Cc1c(O)ccc2c1CCc1cc(O)cc(C=O)c1-2 [2,7-dihydroxy-5-formyl-1-methyl-9,10-dihydrophenanthrene]	not cytotoxic	not cytotoxic	–	–	–	–
C=Cc1cc(O)cc2ccc3c(C)c(O)ccc3c12 [Compound 14, dehydroeffusol]	–	–	no or very low cytotoxicity	no or very low cytotoxicity	no or very low cytotoxicity	–
C=Cc1cc(O)c(Cc2c(O)cc(C=C)c3c2ccc2c(C)c(O)ccc23)c2c1-c1ccc(O)c(C)c1CC2 [Compound 12, Gerardiin L]	–	–	cytotoxic	cytotoxic	cytotoxic	IC50 ([4]; Homo sapiens, MDA-MB-231, 48 h): 7.3 µM; IC50 [1]: > 10 µM; IC50 ([1]; Mus musculus, 4T1, 48 h): 11.7 µM; IC50 ([5]; Homo sapiens, hCMEC/D3): 13.7 µM
Cc1c(O)ccc2c1CCc1cc(O)cc(C3CC=Cc4c5c(cc(O)c43)CCc3c-5ccc(O)c3C)c1-2 (stereo not drawn) [Compound 9, Gerardiin I]	–	–	cytotoxic	cytotoxic	cytotoxic	IC50 ([4]; Homo sapiens, MDA-MB-231, 48 h): < 10 µM; IC50 [4]: 8 µM; IC50 [1]: 7.8 µM; IC50 ([1]; Mus musculus, 4T1, 48 h): < 10 µM; IC50 ([5]; Homo sapiens, hCMEC/D3): 21.6 µM
C=C[C@@]1(C)C(=O)C2=C(C[C@H]1O)c1ccc(O)c(C)c1CC2 [jinflexin C]	–	moderate cytotoxicity	–	–	–	–
C=Cc1cc(O)cc2c1-c1ccc(O)c(C)c1CC2 [Compound 13, effusol]	–	–	no or very low cytotoxicity	no or very low cytotoxicity	no or very low cytotoxicity	–
Gerardiin K [Compound 11]	–	–	cytotoxic	cytotoxic	cytotoxic	IC50 [4]: > 10 µM; IC50 [1]: 8.1 µM; IC50 [5]: 10.6 µM
C=Cc1cc(O)cc2c1-c1ccc(OC)c(C)c1CC2 [7-hydroxy-2-methoxy-1-methyl-5-vinyl-9,10-dihydrophenanthrene]	not cytotoxic	not cytotoxic	–	–	–	–
COC(C)c1cc(O)cc2c1-c1ccc(O)c(C)c1CC2 (stereo not drawn) [effususol A]	not cytotoxic	not cytotoxic	–	–	–	–
COc1cccc2c1C(=O)c1c(O)c3c(c(O)c1C2=O)C[C@@](O)(C(=O)CO)C[C@@H]3O[C@H]1C[C@H](N)[C@H](O)[C@H](C)O1 [doxorubicin, reference compound]	–	–	–	–	–	IC50 ([4]; Homo sapiens, MDA-MB-231, 48 h): 0.8 µM; IC50 ([1]; Mus musculus, 4T1, 48 h): 3.4 µM; IC50 ([5]; Homo sapiens, hCMEC/D3): 0.8 µM
